Reference: patent publication US10913781B2, “Pepducin design and use” (Tufts Medical Center, Inc., priority 2011, dated 2021)

Key:
PAR2 [1] = target: PAR2 (Mus musculus, UniProt P55086); assay: SLIGRL-induced mouse paw edema; format: in vivo; set-up: from tissue; host or cells: living C57BL/6 mice, hindpaw; details: WT C57BL/6 mice; 10 mg/kg s.c.
Procedure: (A) λ-carrageenan/kaolin or (B) the PAR2 specific agonist SLIGRL was administered by intraplantar injection to the left hindpaw of C57BL/6 wild-type or PAR2^−/− mice that were treated with subcutaneous (s.c.) injection of 10 mg/kg of P2pal-18S or vehicle. Paw area was measured and reported as fold-increase relative to baseline paw area. (C) Histology of representative H&E-stained footpads 7 h after λ-carrageenan/kaolin injection and quantification of the infiltrating inflammatory cells at 40× magnification. […]
To evaluate the in vivo efficacy and specificity of P2pal-18S, the ability of the pepducins of the present invention was tested to protect against inflammatory hindlimb paw edema in wild-type (WT) and PAR2-deficient mouse strains (Damiano B P, et al. (1999) J Pharmacol Exp Ther 288: 671-78.) Acute inflammatory edema was induced by an intraplantar injection of λ-carrageenan and kaolin, irritants which cause a massive leukocytosis and hyperemic response, which leads to localized swelling. PAR2-dependent activity of an embodiment of the present invention, polypeptide P2pal-18S, was directly assessed by quantifying its inhibitory effects against the PAR2-specific agonist SLIGRL when injected into the hind footpad of WT C57BL/6 mice. […]

CXCR1/CXCR2 = assay: Human neutrophil chemotaxis to IL-8; format: cell-based; details: 100 nM IL-8
Procedure: (A) Human neutrophils (n=4 normal volunteers) were analyzed for surface expression of human PAR1, PAR2, and PAR4 by flow cytometry with PAR-specific antibodies. […] Chemotaxis index is the ratio of directed versus random migration over 30 min through a 5-μm pore filter.
P2pal-18S had no effect on PAR1-dependent platelet aggregation (FIG. 5A). Neither P2pal-18S nor P2pal-14GQ caused membrane disruption or apoptosis as assessed by propidium iodide uptake in SW620 cells with up to 30 μM concentrations of pepducin (FIG. 5B).

PAR1 [2] = target: T1, PAR1 (Homo sapiens, UniProt P25116); assay: [3H]-InsP formation in COS7 cells transfected with PAR1; format: cell-based; set-up: expressed in transfected cells; host or cells: COS7; details: 1 μM TFLLRN, 30 min
T1 sequence (P25116 22-425): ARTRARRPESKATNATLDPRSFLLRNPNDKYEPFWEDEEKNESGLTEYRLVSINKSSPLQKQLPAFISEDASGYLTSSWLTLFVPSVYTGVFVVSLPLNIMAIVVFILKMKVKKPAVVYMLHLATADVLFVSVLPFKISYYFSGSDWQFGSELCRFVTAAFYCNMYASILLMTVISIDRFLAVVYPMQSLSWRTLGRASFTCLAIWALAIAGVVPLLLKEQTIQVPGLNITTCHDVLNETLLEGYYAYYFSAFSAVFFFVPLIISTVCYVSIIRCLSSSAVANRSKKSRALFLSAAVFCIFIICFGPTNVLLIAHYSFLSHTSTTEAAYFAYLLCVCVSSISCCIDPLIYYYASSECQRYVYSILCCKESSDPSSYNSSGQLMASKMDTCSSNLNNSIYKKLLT
Procedure: (§1) (A) PAR2 antagonist pepducins P2pal-18S and P2pal-14GQ inhibit calcium flux induced by PAR2 (SLIGRL) (SEQ ID NO:4) but not PAR1 (TFLLRN) (SEQ ID NO:2) agonists. SW620 cells were stably transfected with PAR1 and pretreated for 1 min with various concentrations of P2pal-18S or P2pal-14GQ and then stimulated with 30 μM PAR agonist. […] Cells were stimulated with 1 μM TFLLRN (SEQ ID NO:2), 1 μM SLIGRL (SEQ ID NO:4) or 100 μM AYPGKF (SEQ ID NO:5) and [^3H]-InsP formation measured over 30 min. (C) SW620 cells were treated with the indicated concentrations of P2pal-18S or P2pal-14GQ in the upper well of an 8-μm pore Boyden chamber and allowed to migrate for 18 h towards 10 μM of the PAR2 specific agonist SLIGRL in the lower chamber. The migration to RPMI/0.1% FBS represents random migration. (D) Migration of HEK cells transiently transfected with PAR2 (wild-type, WT), or PAR2-R36A/PAR2-RQ toward chemotactic gradients of 30 nM trypsin in the absence or presence of the indicated concentration of P2pal-18S for 18 h in a transwell apparatus ([…]). Data (n=2-4) are mean±SEM. *, P<0.05 and **, P<0.005.

PAR2 [3] = target: PAR2 (Homo sapiens, UniProt P55085); assay: Agonist | (%)^†; set-up: SW620 colon adenocarcinoma cells that endogenously express PAR2; endogenous in cells; host or cells: SW620 (in A7 the SW620 cells were additionally stably transfected with PAR1); details: 4 µM
Sequence of PAR2 (Homo sapiens, UniProt P55085) (P55085 26-397 limits assumed): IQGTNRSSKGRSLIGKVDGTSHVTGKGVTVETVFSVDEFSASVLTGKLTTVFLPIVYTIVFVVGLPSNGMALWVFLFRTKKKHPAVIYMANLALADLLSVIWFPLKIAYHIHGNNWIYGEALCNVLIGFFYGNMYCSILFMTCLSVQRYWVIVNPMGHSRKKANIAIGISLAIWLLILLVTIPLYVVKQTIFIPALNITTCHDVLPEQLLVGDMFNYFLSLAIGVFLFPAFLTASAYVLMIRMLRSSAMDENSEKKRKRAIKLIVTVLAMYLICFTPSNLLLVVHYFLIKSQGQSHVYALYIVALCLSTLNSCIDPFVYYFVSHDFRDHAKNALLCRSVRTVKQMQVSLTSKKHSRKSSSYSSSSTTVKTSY
Procedure: (A) Agonist and antagonist activity of third intracellular (i3) loop PAR2 pepducins (structure shown on top) using calcium flux assays with SW620 colon adenocarcinoma cells that endogenously express PAR2. Each column of three calcium flux traces corresponds to the i3 pepducin sequence shown above. The top row is the agonist activity of 3-4 μM pepducin and the middle row is the agonist activity of 14-15 μM pepducin. […] Final concentration of DMSO vehicle was 0.2%. […] (C) Agonist activity for each pepducin from (A) is reported as initial velocity of calcium flux at 4 μM pepducin (†), or at 14-15 μM pepducin (‡).

PAR1 [4] = target: T1, PAR1; assay: Calcium flux in SW620 cells stably transfected with PAR1, TFLLRN stimulus; format: cell-based; details: 30 μM TFLLRN
Procedure: as §1

PAR4 = target: T2, PAR4 (Homo sapiens, UniProt Q96RI0); assay: [3H]-InsP formation in COS7 cells transfected with PAR4; format: cell-based; set-up: expressed in transfected cells; host or cells: COS7; details: 100 μM AYPGKF, 30 min
T2 sequence (Q96RI0 18-385): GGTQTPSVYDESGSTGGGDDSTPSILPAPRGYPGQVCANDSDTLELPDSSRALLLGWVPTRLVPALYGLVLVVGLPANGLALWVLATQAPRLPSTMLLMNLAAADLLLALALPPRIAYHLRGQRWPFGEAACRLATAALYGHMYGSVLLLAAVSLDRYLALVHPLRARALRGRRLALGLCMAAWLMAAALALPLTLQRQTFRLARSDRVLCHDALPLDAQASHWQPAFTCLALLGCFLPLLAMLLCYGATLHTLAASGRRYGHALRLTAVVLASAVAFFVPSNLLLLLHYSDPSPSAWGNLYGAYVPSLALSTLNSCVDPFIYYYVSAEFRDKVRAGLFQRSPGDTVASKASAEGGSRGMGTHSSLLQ
Procedure: as §1

Sequence of PAR2 (Mus musculus, UniProt P55086) (P55086 26-399): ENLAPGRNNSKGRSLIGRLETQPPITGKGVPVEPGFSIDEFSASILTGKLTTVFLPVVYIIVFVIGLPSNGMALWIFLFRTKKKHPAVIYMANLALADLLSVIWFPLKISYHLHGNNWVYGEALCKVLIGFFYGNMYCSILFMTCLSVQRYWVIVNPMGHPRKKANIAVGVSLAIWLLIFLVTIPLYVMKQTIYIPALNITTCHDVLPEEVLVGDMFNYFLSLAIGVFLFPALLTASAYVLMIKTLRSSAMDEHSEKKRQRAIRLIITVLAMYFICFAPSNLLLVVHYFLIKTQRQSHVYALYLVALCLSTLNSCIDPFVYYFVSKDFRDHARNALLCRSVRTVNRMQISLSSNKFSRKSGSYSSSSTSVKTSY

## CCCCCCCCCCCCCCCC(=O)N[C@@H](CCCNC(=N)N)C(=O)N[C@@H](CO)C(=O)N[C@@H](CO)C(=O)N[C@@H](C)C(=O)N[C@@H](CCSC)C(=O)N[C@@H](CC(=O)O)C(=O)N[C@@H](CCC(=O)O)C(=O)N[C@@H](CC(N)=O)C(=O)N[C@@H](CO)C(=O)N[C@@H](CCC(=O)O)C(=O)N[C@@H](CCCCN)C(=O)N[C@@H](CCCCN)C(=O)N[C@@H](CCCNC(=N)N)C(=O)N[C@@H](CCCCN)C(=O)N[C@@H](CO)C(=O)N[C@@H](C)C(=O)N[C@H](C(=O)N[C@@H](CCCCN)C(N)=O)[C@@H](C)CC [P2pal-18S]
PAR2 [1]
  Decrease in SLIGRL-induced edema: 85%
CXCR1/CXCR2
  Antagonist activity, neutrophil chemotaxis, CXCR1/2 IL-8 receptors: no antagonist activity
PAR1 [2]
  Inhibition of InsP signaling from PAR1: do not inhibit
PAR2 [3]
  Agonist | (%)^†: 3%
PAR1 [4]
  Inhibition of PAR1 calcium flux: did not inhibit
PAR4
  Inhibition of InsP signaling from PAR4: do not inhibit
